Entries after “also recorded” stand apart in the source; their conditions may differ. Blank lines part the entries; values can stand above or below the compound they belong to.
Experiments:
hSERT [1] = molecular target: T1, hSERT (Homo sapiens, UniProt P31645); experiment: Binding assay on whole cells transfected with hSERT ([3H]-citalopram displacement); details: whole cell assay, 35 nM [3H]-citalopram, 60 min room temperature; table title: 45 min preincubation
T1 construct: expressed in transfected cells; the general 96-well protocol names Cos-1
Method: The pcDNA3 plasmid vector containing the hSERT gene was used for transfection (see FIG. 6).
(§1) The 96-well plate was washed with PBSCM to remove DMEM prior to the assay. […] The plate was subsequently incubated for 60 min at room temperature. The assay was terminated by washing once with PBSCM. The amount of accumulated [^3H]-citalopram was determined by solubilizing cells in scintillant (MicroScint 20) with direct counting of plates in a Packard TopCounter. Data was analyzed by GraphPad software.

hSERT [2] = molecular target: T1, hSERT; experiment: 5-HT uptake assay with preincubation (whole cells); type: cell-based; details: whole cell assay with preincubation (title 45 min, text 60 min), 75 nM [3H]-5-HT, 10 min
Method: 7 μl Fugene-6 was mixed with 112 μl Dulbecco's modified Eagle's medium, and incubated at room temperature for 5 minutes. 4 μg of plasmid were added and the mixture was further incubated at least 15 minutes. Cos-1 cells were trypsinized and suspended in growth media, and the plasmid/Fugene-6 mixture was added followed by dispersion into a 96-well plate.
as §1, with “assay. 50 μl PBSCM containing increasing concentrations of allosteric ligand were added to each well, and incubated for 60 min at room temperature under moderate agitation.” for “assay.”, “10” for “60”, “[^3H]-5-HT” for “[^3H]-citalopram”
We tested the allosteric ligands for their ability to inhibit/activate 5-HT-uptake in the whole-cell assay after 60 minutes preincubation.

hDAT = molecular target: T2, hDAT (Homo sapiens, UniProt Q01959); experiment: Binding of [125I]-RTI-55 in whole cell assay, cells transfected with human DAT; details: displacement of [125I]-RTI-55
T2 construct: expressed in transfected cells
From the text: A binding assay as described in example 2, wherein the cocaine analogue [^125I] RTI-55 was used to test for the compounds of the present invention to act as displacers of cocain.
(§2) Because RTI-55 (and cocaine) acts as inhibitors of SERT and DAT, we also performed the binding assay in cells transfected with human DAT.

hSERT [3] = molecular target: T1, hSERT; experiment: Binding of [125I]-RTI-55 in whole cell assay, hSERT; details: displacement of [125I]-RTI-55
From the text: RTI-55 was used to test for the compounds of the present invention to act as displacers of cocain.
as §2

hSERT [4] = molecular target: T1, hSERT; experiment: Dissociation assay with [3H]-citalopram and hSERT membrane preparations; type: binding; details: for Stabilises dissociation of [3H]-citalopram: own effect (10 uM fluoxetine) (concentration which affects dissociation): 10 uM fluoxetine in dissociation buffer; for Stabilises dissociation of [3H]-citalopram: 15 uM citalopram (concentration which affects dissociation): 15 uM citalopram in dissociation buffer
Method: (§3) 17.5 μl Fugene-6 (Roche Molecular Biochemicals) were mixed with 280 μl Dulbecco's modified Eagle's medium, and incubated at room temperature for 5 minutes. 10 μg of plasmid were added and the mixture was further incubated at least 15 minutes. […] Prior to harvesting the dish was rinsed in PBS. Cells were harvested with a cell scraper in buffer 1 (50 mM Tris-base, 150 mM NaCl, 20 mM EDTA, pH 7.4). After centrifugation (3000 g at 4° C. for 10 mins), cells were suspended and homogenized with an IKA Ultra-Turrax from Rose Scientific Ltd (Edmonton, Alberta, Canada) for 20 s in buffer 1. Membranes were pelleted by ultracentrifugation (12 000 g at 4° C. for 15 min) and homogenization was repeated in buffer 1. Finally, after ultracentrifugation (12000 g, 4° C., 15 min) membranes were resuspended in 1 ml buffer 3 (50 mM Tris-base, 120 mM NaCl, 5 mM KCl, pH 7.4) and stored at −80° C.
Dissociation assay with [^3H]-citalopram and membrane preparations SERT-[^3H]-citalopram complex was formed by incubating hSERT membrane preparation and radioligand in buffer 3 during a 60 min incubation at 4° C. Radioligand was present at a concentration 10 times the Kd value. The time kinetic of dissociation was followed by adding 10 μL complex solution to 250 μL buffer 3 in 96-well plates and incubating subsequently for increasing time intervals at RT. Reactions were terminated by filtration through GF/C glass-fibre filters (Unifilter, Perkin Elmer Life Sciences), preincubated with 40 μl 0.5 % polyethyleneimine, using a Pachard Bell cell harvester, and subsequently washed three times with water. Filters were soaked in 40 μl Microscint 20 scintillation liquid (Pachard Bell). Bound radioactivity was determined by direct counting of plates using a Packard Bell microplate scintillation counter. Dissociation curves were obtained by plotting residual binding vs. time of dissociation.
The interaction of the allosteric ligand with the allosteric mechanism used by citalopram was studied by combining allosteric ligand and citalopram in the dissociation buffer. The interaction of the allosteric ligand with the radioligand was studied by combining the allosteric ligand and fluoxetine in the dissociation buffer.
(§4) Dissociation of [^3H]-citalopram from the serotonin transporter has been studied using membrane preparations from SERT-expressing cells. The off-rates of the radioligand were measured in the presence/absence of a fixed concentration of allosteric ligand. […] Additionally, the allosteric impact on the radioligand in the absence of citalopram, was studied by combining 10 μM fluoxetine and 200/2000 μM allosteric ligand in the dissociation buffer. […] The cells were incubated for 10 minutes before the assay was terminated by washing in PBSCM.

hSERT [5] = molecular target: T1, hSERT; experiment: 5-HT uptake assay, 10 min incubation without preincubation; type: cell-based; details: 75 nM [3H]-5-HT, no preincubation
Method: Cells were grown for 48 h to confluency, and prior to uptake assay, plates were washed in PBSCM. All washing steps were carried out in an automatic plate washer. […] The assay was terminated by washing with PBSCM. The amount of accumulated [^3H]-5HT was determined by solubilizing cells in scintillant (MicroScint 20) with direct counting of plates in a Packard TopCounter. Data was analyzed by GraphPad software.
as §4

hSERT [6] = molecular target: T1, hSERT; experiment: Binding of [3H]-citalopram to membrane preparations; details: 35 nM [3H]-citalopram, 60 min RT
Method: as §3
A dilution series of the allosteric ligand was prepared in buffer 3 containing 70 nM [^3H]-citalopram. […] The mixture was incubated under moderate agitation at RT for 60 min. Reactions were terminated by filtration through GF/C glass-fibre filters (Unifilter, Perkin Elmer Life Sciences), preincubated with 40 μl 0.5 % polyethyleneimine, using a Pachard Bell cell harvester, and subsequently washed three times with water. Filters were soaked in 40 μl Microscint 20 scintillation liquid (Pachard Bell). Bound radioactivity was determined by direct counting of plates using a Packard Bell microplate scintillation counter. Displacing curves were obtained by plotting residual binding vs. log concentration of the displacing ligand.

[7] = system: dorsal raphe 5-HT neurons; type: in vivo
Method: The experiments were carried out in male Sprague-Dawley rats weighing 250-300 g at the day of the recording. Prior to the acute study, a dose-response curve on the suppressive effect on neuronal firing of fluoxetine was constructed. Subsequently, in the acute study, 5 mg/kg 1-NSC was injected i.v. followed by administration of 1 mg/kg fluoxetine. In the chronic administration experiments, groups of rats were treated with fluoxetine (10 mg/kg/day), 1-NSC (2×10 mg/kg/day) or in combination for 7 days delivered subcutaneously (s.c.) with osmotic minipumps. Control rats received a minipump containing vehicle (NaCl 0.9%). The rats were tested with the minipumps in place.
Extracellular recordings were performed with single-barreled glass micropipettes preloaded with fiberglass filaments in order to facilitate filling. The tip was broken back to 2-4 μm and filled with a 2 M NaCl solution saturated with Pontamine Sky Blue to stain the location. The rats were placed in a stereotaxic frame and a burr hole was drilled on the midline, 1 mm anterior to lambda. Presumed DRN 5-HT neurons were encountered over a distance of 1 mm starting immediately below the ventral border of the Sylvius aqueduct. These neurons were identified using the criteria of Aghajanian (1978): a slow (0.5-2.5 Hz) and regular firing rate and long-duration (0.8-1.2 ms) positive action potentials; they were also verified to be located in DRN. WAY 100635 (N-{2-[4(2-methoxyphenyl)-1-piperazinyl]ethyl}-N-(2-pyridinyl)cyclohexanecarboxamide trihydrochloride; 50-100 μg/kg, i.v.) was used to reverse the suppressant effect of fluoxetine or fluoxetine/1-NSC on the firing activity of DRN 5-HT neurons. […] For the chronic studies, in order to determine the possible changes of the spontaneous firing activity of dorsal raphe 5-HT neurons, four to five electrode descents were carried out through this nucleus, in rats with minipumps in place.
The allosteric ligand 1-NSC was tested in vivo in Sprague-Dawley rats for the ability to interfere with fluoxetine-induced suppression of the neuronal firing rate (Assay 6).

T1 sequence (P31645 whole entry): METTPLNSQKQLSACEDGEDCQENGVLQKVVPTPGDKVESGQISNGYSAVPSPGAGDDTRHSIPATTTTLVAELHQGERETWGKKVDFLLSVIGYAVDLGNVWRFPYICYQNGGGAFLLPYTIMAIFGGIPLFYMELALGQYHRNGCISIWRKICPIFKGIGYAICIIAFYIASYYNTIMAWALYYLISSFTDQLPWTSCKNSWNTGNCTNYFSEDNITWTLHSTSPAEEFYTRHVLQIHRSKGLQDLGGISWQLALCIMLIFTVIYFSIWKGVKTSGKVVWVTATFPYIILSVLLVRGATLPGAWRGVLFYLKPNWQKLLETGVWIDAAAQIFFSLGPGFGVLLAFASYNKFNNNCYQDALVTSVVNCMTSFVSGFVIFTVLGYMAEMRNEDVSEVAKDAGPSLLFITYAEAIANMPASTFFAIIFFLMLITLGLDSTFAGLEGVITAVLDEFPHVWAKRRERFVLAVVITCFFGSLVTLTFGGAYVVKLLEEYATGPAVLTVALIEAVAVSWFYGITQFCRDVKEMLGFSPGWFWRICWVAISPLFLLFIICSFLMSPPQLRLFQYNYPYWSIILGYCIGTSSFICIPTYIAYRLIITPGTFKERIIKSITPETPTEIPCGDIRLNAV
T2 sequence (Q01959 whole entry): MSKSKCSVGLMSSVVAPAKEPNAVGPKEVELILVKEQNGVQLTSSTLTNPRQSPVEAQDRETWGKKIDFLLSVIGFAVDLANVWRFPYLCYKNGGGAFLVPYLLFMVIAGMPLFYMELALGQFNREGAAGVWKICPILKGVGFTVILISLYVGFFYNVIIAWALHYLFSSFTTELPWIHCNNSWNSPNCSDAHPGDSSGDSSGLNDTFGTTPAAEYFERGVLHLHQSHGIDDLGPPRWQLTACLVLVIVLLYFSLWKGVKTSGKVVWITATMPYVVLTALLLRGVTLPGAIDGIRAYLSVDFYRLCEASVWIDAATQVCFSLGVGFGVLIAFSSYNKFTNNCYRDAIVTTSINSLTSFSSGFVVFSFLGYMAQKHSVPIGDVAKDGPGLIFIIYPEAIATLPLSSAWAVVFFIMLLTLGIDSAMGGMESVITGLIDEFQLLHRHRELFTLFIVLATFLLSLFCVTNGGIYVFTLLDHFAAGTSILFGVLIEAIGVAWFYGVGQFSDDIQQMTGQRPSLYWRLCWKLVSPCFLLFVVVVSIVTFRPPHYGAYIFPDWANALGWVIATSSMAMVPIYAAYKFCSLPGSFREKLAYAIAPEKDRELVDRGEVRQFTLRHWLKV

EC50 (hSERT [1]): 1.26 mM
IC50 (hSERT [2]): 1.82 mM
EC50 (hDAT): 1280 µM
EC50 (hSERT [3]): 2310 µM
Stabilises dissociation of [3H]-citalopram: own effect (10 uM fluoxetine) (concentration which affects dissociation) (hSERT [4]): 2000 µM
Stabilises dissociation of [3H]-citalopram: 15 uM citalopram (concentration which affects dissociation) (hSERT [4]): 2000 µM
5-HT uptake (effect) (hSERT [5]): No effect
Binding of [3H]-citalopram (Bmax) (hSERT [6]): No effect
SMILES: Cc1ccc(S(=O)(=O)n2ccnc2)cc1 [TS14]

SMILES: COc1ccccc1N1CCN(CCN(C(=O)C2CCCCC2)c2ccccn2)CC1.Cl.Cl.Cl [Way 100,635, N-{2-[4(2-methoxyphenyl)-1-piperazinyl]ethyl}-N-(2-pyridinyl)cyclohexanecarboxamide trihydrochloride, reference compound]
reversal of suppression of the neuronal firing rate ([7]; 50-100 ug/kg i.v. after fluoxetine or fluoxetine/1-NSC, trihydrochloride): reverses the suppressive effect of fluoxetine on the neuronal firing rate; also recorded: completely restored the neuronal firing rate

SMILES: O=S(=O)(Cl)c1cccc2ccccc12 [1-NSC, 1-naphthalenesulfonyl chloride]
Stabilises dissociation of [3H]-citalopram: own effect (10 uM fluoxetine) (concentration which affects dissociation) (hSERT [4]): 2000 µM
Stabilises dissociation of [3H]-citalopram: 15 uM citalopram (concentration which affects dissociation) (hSERT [4]): 2000 µM
5-HT uptake (effect) (hSERT [5]): Increase
Binding of [3H]-citalopram (Bmax) (hSERT [6]): Displace
effect of 1-NSC alone on neuronal firing rate ([7]; acute injection, restored within minutes (FIG. 1)): small decrease in neuronal firing rate
effect on fluoxetine-induced suppression of the neuronal firing rate ([7]; acute study, 5 mg/kg 1-NSC then 1 mg/kg fluoxetine, DRN (FIG. 1)): acutely enhances the fluoxetine-induced suppression of the neuronal firing rate; also recorded: potentiation of the fluoxetine-induced suppression of the neuronal firing rate
recovery of dorsal raphe 5-HT neuronal firing of fluoxetine treated rats (FIG. 2) ([7]; chronic treatment, 7 day period): potentiated
toxic side effects ([7]; doses used in the experiments of FIGS. 1 and 2, rats): no apparent toxic side effects

SMILES: CNCCC(Oc1ccc(C(F)(F)F)cc1)c1ccccc1 (stereo not drawn) [fluoxetine, reference compound]
recovery of the firing rates ([7]; chronic treatment 7 days s.c. minipumps, rats (FIG. 2)): 30%

— US20100048713A1, “COMPOUNDS ACTING ON THE SEROTONIN TRANSPORTER” (Aarhus Universitet, priority 2006, published 2010)
